{"source": "patent US20100179188A1", "about": "“NITROXIDE RADICAL AS TREATMENT FOR NEURODEGENERATION” (Office of Technology Transfer, NIH, priority 2007, published 2010)", "key": {"purified holo-IRP1": {"target": "T1, purified holo-IRP1 (Homo sapiens, UniProt P21399)", "T1 sequence (P21399 1-889)": "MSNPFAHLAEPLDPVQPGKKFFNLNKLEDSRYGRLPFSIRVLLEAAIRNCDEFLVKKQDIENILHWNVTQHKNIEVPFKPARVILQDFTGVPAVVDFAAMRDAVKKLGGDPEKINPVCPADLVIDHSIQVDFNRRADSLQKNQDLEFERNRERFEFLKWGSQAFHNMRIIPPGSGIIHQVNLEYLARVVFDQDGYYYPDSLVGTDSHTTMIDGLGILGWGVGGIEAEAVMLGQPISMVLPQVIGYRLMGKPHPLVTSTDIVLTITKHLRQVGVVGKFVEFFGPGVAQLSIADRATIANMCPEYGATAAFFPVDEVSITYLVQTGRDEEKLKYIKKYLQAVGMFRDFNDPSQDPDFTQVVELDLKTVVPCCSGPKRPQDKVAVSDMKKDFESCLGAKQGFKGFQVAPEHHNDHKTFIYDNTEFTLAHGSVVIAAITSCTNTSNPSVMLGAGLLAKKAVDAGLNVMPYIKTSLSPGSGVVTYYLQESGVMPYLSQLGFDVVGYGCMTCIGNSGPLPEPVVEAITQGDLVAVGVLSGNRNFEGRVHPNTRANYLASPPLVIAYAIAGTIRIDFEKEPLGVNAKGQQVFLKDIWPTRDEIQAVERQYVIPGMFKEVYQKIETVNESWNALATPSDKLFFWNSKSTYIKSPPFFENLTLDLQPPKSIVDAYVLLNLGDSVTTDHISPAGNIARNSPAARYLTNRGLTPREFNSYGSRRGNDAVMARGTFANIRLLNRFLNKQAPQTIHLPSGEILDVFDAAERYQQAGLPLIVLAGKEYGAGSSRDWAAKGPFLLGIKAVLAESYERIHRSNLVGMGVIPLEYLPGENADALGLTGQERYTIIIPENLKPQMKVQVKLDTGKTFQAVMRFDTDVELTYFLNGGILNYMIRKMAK", "assay": "Aconitase activity of purified holo-IRP1, coupled solution assay", "format": "biochemical", "details": "purified protein, room air up to 2 h or 3 h at 37° C., vs control samples"}, "IRP1": {"target": "T2, IRP1 (Mus musculus, UniProt P28271)", "T2 sequence (P28271 1-889)": "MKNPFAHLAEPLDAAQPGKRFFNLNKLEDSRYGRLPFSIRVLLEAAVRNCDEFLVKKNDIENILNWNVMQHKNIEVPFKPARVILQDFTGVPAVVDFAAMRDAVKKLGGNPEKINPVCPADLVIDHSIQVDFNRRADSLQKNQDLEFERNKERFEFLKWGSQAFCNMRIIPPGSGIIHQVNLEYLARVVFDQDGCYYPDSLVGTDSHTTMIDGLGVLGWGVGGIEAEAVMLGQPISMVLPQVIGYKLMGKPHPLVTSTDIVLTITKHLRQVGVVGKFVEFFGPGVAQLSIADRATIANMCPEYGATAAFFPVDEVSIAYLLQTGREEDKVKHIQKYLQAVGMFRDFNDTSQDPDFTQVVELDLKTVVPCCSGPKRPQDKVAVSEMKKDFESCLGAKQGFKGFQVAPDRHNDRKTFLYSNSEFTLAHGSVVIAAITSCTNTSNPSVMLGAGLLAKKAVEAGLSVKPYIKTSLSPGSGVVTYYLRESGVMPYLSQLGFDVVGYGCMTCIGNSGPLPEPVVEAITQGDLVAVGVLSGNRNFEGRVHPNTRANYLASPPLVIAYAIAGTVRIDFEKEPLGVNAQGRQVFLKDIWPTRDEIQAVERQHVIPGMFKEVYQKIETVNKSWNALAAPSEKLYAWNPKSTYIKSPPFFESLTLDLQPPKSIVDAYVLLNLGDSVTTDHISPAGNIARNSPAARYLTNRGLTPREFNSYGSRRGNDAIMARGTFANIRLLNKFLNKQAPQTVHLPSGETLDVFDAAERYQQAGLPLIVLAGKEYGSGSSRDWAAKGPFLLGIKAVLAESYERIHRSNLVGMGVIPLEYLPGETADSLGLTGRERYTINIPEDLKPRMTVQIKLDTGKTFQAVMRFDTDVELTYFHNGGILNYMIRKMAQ", "assay": "IRE-binding activity of IRP1 in IRP2−/− embryonic fibroblasts (gel shift)", "format": "cell-based", "parameters": "Embryonic fibroblasts of 13-day old embryos were isolated from wild type, IRP1−/− mice and IRP2−/− mice; endogenous in cells; host or cells: mouse embryonic fibroblasts (wild type and IRP2−/−)", "details": "0.3 and 1.0 mM, 16 h", "description": "Cells: Embryonic fibroblasts of 13-day old embryos were isolated from wild type, IRP1−/− mice and IRP2−/− mice as described in LaVaute et al. supra. Myc-tagged HEK 293 Tet-on cell line, in which IRP2 expression was inducible, was prepared and cultured as described Bourdon et al., Blood Cells Mol Dis, 31, 247-255 (2003). Erythroblasts were harvested from bone marrow and purified as described in Cooperman et al., Blood, 106, 1084-1091 (2005).\nRNA mobility shift assays: Gel retardation assays were performed as described in Meyron-Holtz et al., EMBO J, 23, 386-395 (2004). Tissue lysates were prepared in an anaerobic chamber as described above in oxygen-depleted lysis buffer containing 10 mM HEPES (pH 7.2), 3 mM MgC12, 40 mM KCl, 5% glycerol, 0.2% Nonidet P-40, 5 mM DTT, 1 mM AEBSF, 10 μg/ml. Leupeptin and complete TM EDTA free protease inhibitor cocktail (Roche Applied Science, Indiana). […]\nTo study the effect of Tempo1 on the IRE-binding activity of IRP1, IRP2−/− embryonic fibroblasts that were maintained in culture supplemented with 0, 0.3 and 1.0 mM Tempo1, with or without ferric ammonium citrate (FAC), for 16 h. […] Quantification was performed with the IQMac (IRP1 activity) or NIH Image (protein levels) program. Error bars represent the standard deviation calculated from the results of two different sets of experiments."}}, "note": "“Also recorded” adds a separate entry of the source.", "data": [{"smiles": "CC1(C)CC(O)CC(C)(C)N1[O]", "note": "[Tempo1]", "values": [{"measurement": "loss of aconitase activity", "setting": "purified holo-IRP1", "value": "comparable losses; also recorded: did not enhance"}, {"measurement": "IRE-binding activity of IRP1", "setting": "IRP1", "value": "activate IRP1"}]}]}
